Results taken from patent publication US20260258038A1 (priority 2023, published 2026).

Columns and labels:
[1] = tested on: Pythium ultimum; assay: Pythium ultimum / liquid culture (seedling damping off); type: cell-based; settings: Globisporangium ultimum, liquid culture in PDB, 24° C., 2-3 days after application, read-out: control of Pythium ultimum (inhibition of growth, photometric)
Protocol: Pythium ultimum/Liquid Culture (Seedling Damping Off)
Mycelia fragments and oospores of a newly grown liquid culture of the fungus are directly mixed into nutrient broth (PDB potato dextrose broth). After placing a (DMSO) solution of test compound into a microtiter plate (96-well format), the nutrient broth containing the fungal mycelia/spore mixture is added. The test plates are incubated at 24° C. and the inhibition of growth is determined photometrically 2-3 days after application.

[2] = tested on: Phytophthora infestans; assay: whole plant or invertebrate; type: in vivo; settings: in Solanum lycopersicum, foliar, read-out: control of Phytophthora infestans (percent disease control compared to untreated)
[3] = tested on: Plasmopara viticola; assay: whole plant or invertebrate; type: in vivo; settings: foliar, read-out: control of Plasmopara viticola (percent disease control compared to untreated)

Structure (SMILES)	inhibition at 20 ppm [1] [%]	pest or weed control at 200 ppm [2] [%]	pest or weed control at 200 ppm [3] [%]
COC(=O)Nc1ccc(-c2cnc3c(C)cc(N(C)C(=O)c4ccc(Cl)c(OC)c4)cn23)cn1 [Compound 1, methyl N-[5-[6-[(4-chloro-3-methoxy-benzoyl)-methyl-amino]-8-methyl-imidazo[1,2-a]pyridin-3-yl]-2-pyridyl]carbamate]	≥ 80	≥ 80	≥ 80
COC(=O)Nc1ccc(-c2cnc3c(C)cc(N(C)C(=O)c4ccc(C#N)c(C)c4)cn23)cn1 [Compound 2, methyl N-[5-[6-[(4-cyano-3-methyl-benzoyl)-methyl-amino]-8-methyl-imidazo[1,2-a]pyridin-3-yl]-2-pyridyl]carbamate]	≥ 80	–	–
COC(=O)Nc1ccc(-c2cnc3c(C)cc(N(C)C(=O)c4ccnc(OC)c4)cn23)cn1 [Compound 3, methyl N-[5-[6-[(2-methoxypyridine-4-carbonyl)-methyl-amino]-8-methyl-imidazo[1,2-a]pyridin-3-yl]-2-pyridyl]carbamate]	≥ 80	≥ 80	–
COC(=O)Nc1ccc(-c2cnc3c(C)cc(N(C)C(=O)c4ccc(C#N)c(F)c4)cn23)cn1 [Compound 4, methyl N-[5-[6-[(4-cyano-3-fluoro-benzoyl)-methyl-amino]-8-methyl-imidazo[1,2-a]pyridin-3-yl]-2-pyridyl]carbamate]	≥ 80	–	–
COC(=O)Nc1ccc(-c2cnc3c(C)cc(N(C)C(=O)c4ccc(C#N)c(OC)c4)cn23)cn1 [Compound 5, methyl N-[5-[6-[(4-cyano-3-methoxy-benzoyl)-methyl-amino]-8-methyl-imidazo[1,2-a]pyridin-3-yl]-2-pyridyl]carbamate]	≥ 80	≥ 80	≥ 80
COC(=O)Nc1ccc(-c2cnc3ccc(N(CC#N)C(=O)c4ccc(F)cc4)cn23)cn1 [Compound 6, methyl N-[5-[6-[cyanomethyl-(4-fluorobenzoyl)amino]imidazo[1,2-a]pyridin-3-yl]-2-pyridyl]carbamate]	≥ 80	–	–
COC(=O)Nc1ccc(-c2cnc3ccc(N(CC#N)C(=O)c4ccc(F)c(OC)c4)cn23)cn1 [Compound 7, methyl N-[5-[6-[cyanomethyl-(4-fluoro-3-methoxy-benzoyl)amino]imidazo[1,2-a]pyridin-3-yl]-2-pyridyl]carbamate]	≥ 80	–	–
CCOc1cc(C(=O)N(C)c2cc(C)c3ncc(-c4ccc(NC(=O)OC)nc4)n3c2)ccc1C#N [Compound 10, methyl N-[5-[6-[(4-cyano-3-ethoxy-benzoyl)-methyl-amino]-8-methyl-imidazo[1,2-a]pyridin-3-yl]-2-pyridyl]carbamate]	≥ 80	≥ 80	≥ 80
COC(=O)Nc1ccc(-c2cnc3c(C)cc(N(C)C(=O)c4ccc(F)c(C)c4)cn23)cn1 [Compound 11, methyl N-[5-[6-[(4-fluoro-3-methyl-benzoyl)-methyl-amino]-8-methyl-imidazo[1,2-a]pyridin-3-yl]-2-pyridyl]carbamate]	≥ 80	≥ 80	≥ 80
COC(=O)Nc1ccc(-c2cnc3c(C)cc(N(C)C(=O)c4ccc(F)c(F)c4)cn23)cn1 [Compound 12, methyl N-[5-[6-[(3,4-difluorobenzoyl)-methyl-amino]-8-methyl-imidazo[1,2-a]pyridin-3-yl]-2-pyridyl]carbamate]	≥ 80	≥ 80	≥ 80
COC(=O)Nc1ccc(-c2cnc3c(C)cc(N(C)C(=O)c4ccc(F)c(OC)c4)cn23)cn1 [Compound 13, methyl N-[5-[6-[(4-fluoro-3-methoxy-benzoyl)-methyl-amino]-8-methyl-imidazo[1,2-a]pyridin-3-yl]-2-pyridyl]carbamate]	≥ 80	≥ 80	≥ 80
COCCN(C(=O)c1ccc(F)c(OC)c1)c1ccc2ncc(-c3ccc(NC(=O)OC)nc3)n2c1 [Compound 14, methyl N-[5-[6-[(4-fluoro-3-methoxy-benzoyl)-(2-methoxyethyl)amino]imidazo[1,2-a]pyridin-3-yl]-2-pyridyl]carbamate]	≥ 80	–	–
COC(=O)Nc1ccc(-c2cnc3ccc(N(C)C(=O)c4ccc(C#N)c(F)c4)cn23)cn1 [Compound 15, methyl N-[5-[6-[(4-cyano-3-fluoro-benzoyl)-methyl-amino]imidazo[1,2-a]pyridin-3-yl]-2-pyridyl]carbamate]	≥ 80	–	–
COC(=O)Nc1ccc(-c2cnc3ccc(N(C)C(=O)c4ccc(C#N)c(C)c4)cn23)cn1 [Compound 17, methyl N-[5-[6-[(4-cyano-3-methyl-benzoyl)-methyl-amino]imidazo[1,2-a]pyridin-3-yl]-2-pyridyl]carbamate]	≥ 80	–	–
CCOc1cc(C(=O)N(C)c2cc(C)c3ncc(-c4ccc(NC(=O)OC)nc4)n3c2)ccc1F [Compound 19, methyl N-[5-[6-[(3-ethoxy-4-fluoro-benzoyl)-methyl-amino]-8-methyl-imidazo[1,2-a]pyridin-3-yl]-2-pyridyl]carbamate]	≥ 80	≥ 80	–
COC(=O)Nc1ccc(-c2cnc3ccc(N(C)C(=O)c4ccc(F)c(C)c4)cn23)cn1 [Compound 21, methyl N-[5-[6-[(4-fluoro-3-methyl-benzoyl)-methyl-amino]imidazo[1,2-a]pyridin-3-yl]-2-pyridyl]carbamate]	≥ 80	≥ 80	–
COC(=O)Nc1ccc(-c2cnc3ccc(N(C)C(=O)c4ccc(F)c(F)c4)cn23)cn1 [Compound 22, methyl N-[5-[6-[(3,4-difluorobenzoyl)-methyl-amino]imidazo[1,2-a]pyridin-3-yl]-2-pyridyl]carbamate]	≥ 80	≥ 80	–
CCOc1cc(C(=O)N(C)c2ccc3ncc(-c4ccc(NC(=O)OC)nc4)n3c2)ccc1F [Compound 23, methyl N-[5-[6-[(3-ethoxy-4-fluoro-benzoyl)-methyl-amino]imidazo[1,2-a]pyridin-3-yl]-2-pyridyl]carbamate]	≥ 80	≥ 80	–
COCN(C(=O)c1ccc(F)cc1)c1ccc2ncc(-c3ccc(NC(=O)OC)nc3)n2c1 [Compound 24, methyl N-[5-[6-[(4-fluorobenzoyl)-(methoxymethyl)amino]imidazo[1,2-a]pyridin-3-yl]-2-pyridyl]carbamate]	≥ 80	≥ 80	–
COCN(C(=O)c1ccc(F)c(OC)c1)c1ccc2ncc(-c3ccc(NC(=O)OC)nc3)n2c1 [Compound 25, methyl N-[5-[6-[(4-fluoro-3-methoxy-benzoyl)-(methoxymethyl)amino]imidazo[1,2-a]pyridin-3-yl]-2-pyridyl]carbamate]	≥ 80	≥ 80	≥ 80
COC(=O)Nc1ccc(-c2cnc3ccc(N(C)C(=O)c4ccc(Cl)cc4)cn23)cc1 [Compound 27, methyl N-[4-[6-[(4-chlorobenzoyl)-methyl-amino]imidazo[1,2-a]pyridin-3-yl]phenyl]carbamate]	≥ 80	–	≥ 80
COC(=O)Nc1ccc(-c2cnc3c(C)cc(N(C)C(=O)c4cccc(OC)n4)cn23)cn1 [Compound 37, methyl N-[5-[6-[(6-methoxypyridine-2-carbonyl)-methyl-amino]-8-methyl-imidazo[1,2-a]pyridin-3-yl]-2-pyridyl]carbamate]	–	≥ 80	–
COC(=O)Nc1ccc(-c2cnc3c(C)cc(N(C)C(=O)c4ccccc4C(=O)OC)cn23)cn1 [Compound 40]	–	≥ 80	–
COC(=O)Nc1ccc(-c2cnc3c(C)cc(N(C)C(=O)c4cnc(F)c(C)c4)cn23)cn1 [Compound 43, methyl N-[5-[6-[(6-fluoro-5-methyl-pyridine-3-carbonyl)-methyl-amino]-8-methyl-imidazo[1,2-a]pyridin-3-yl]-2-pyridyl]carbamate]	≥ 80	≥ 80	–
COC(=O)Nc1ccc(-c2cnc3c(C)cc(N(C)C(=O)c4cccnc4SC)cn23)cn1 [Compound 46, methyl N-[5-[8-methyl-6-[methyl-(2-methylsulfanylpyridine-3-carbonyl)amino]imidazo[1,2-a]pyridin-3-yl]-2-pyridyl]carbamate]	–	≥ 80	–
COC(=O)Nc1ccc(-c2cnc3c(C)cc(N(C)C(=O)c4ccc(C#N)nc4)cn23)cn1 [Compound 51, methyl N-[5-[6-[(6-cyanopyridine-3-carbonyl)-methyl-amino]-8-methyl-imidazo[1,2-a]pyridin-3-yl]-2-pyridyl]carbamate]	–	≥ 80	–
COC(=O)Nc1ccc(-c2cnc3c(NC(C)=O)cc(N(C)C(=O)c4ccc(F)c(OC)c4)cn23)cn1 [Compound 59, methyl N-[5-[8-acetamido-6-[(4-fluoro-3-methoxy-benzoyl)-methyl-amino]imidazo[1,2-a]pyridin-3-yl]-2-pyridyl]carbamate]	≥ 80	≥ 80	–
COC(=O)Nc1ccc(-c2cnc3ccc(N(CCC#N)C(=O)c4ccc(F)c(OC)c4)cn23)cn1 [Compound 62, methyl N-[5-[6-[2-cyanoethyl-(4-fluoro-3-methoxy-benzoyl)amino]imidazo[1,2-a]pyridin-3-yl]-2-pyridyl]carbamate]	≥ 80	≥ 80	–
